Columns and labels:
[1] = system: rat epididynial adipocytes; assay: binding affinity to rat epididynial adipocytes; conditions: compared with rat ghrelin, MK 0677 and hexarelin
[2] = target: T1, human pituitary gland tissues (Homo sapiens, UniProt Q92847); assay: binding affinity to human pituitary gland tissues; conditions: compared with ghrelin, hexarelin, MK 0677 and JMV 1843
T1 construct: from tissue; host or cells: human pituitary gland tissue

GH release [3] = assay: stimulation of GH release in vitro; assay type: cell-based
GH release [4] = assay: GH release in vivo (neonatal rats injected subcutaneously); set-up: species or system rat

T1 sequence (Q92847 whole entry): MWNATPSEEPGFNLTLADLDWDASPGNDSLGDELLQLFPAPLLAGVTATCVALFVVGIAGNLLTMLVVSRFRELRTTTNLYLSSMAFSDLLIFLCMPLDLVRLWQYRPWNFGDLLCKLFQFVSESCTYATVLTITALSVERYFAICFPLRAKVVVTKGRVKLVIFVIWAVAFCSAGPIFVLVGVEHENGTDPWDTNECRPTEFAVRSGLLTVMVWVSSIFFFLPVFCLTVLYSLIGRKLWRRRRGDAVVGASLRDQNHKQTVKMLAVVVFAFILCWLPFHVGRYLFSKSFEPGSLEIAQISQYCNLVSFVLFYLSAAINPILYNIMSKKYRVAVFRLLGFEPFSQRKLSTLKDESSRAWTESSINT

Substance	binding affinity to rat epididynial adipocytes [1]	binding affinity to human pituitary gland tissues [2]	potency in stimulating the GH release in vitro (GH release [3])	potency in stimulating the GH release in vivo (GH release [4])	amount of growth hormone released (GH release [4]; neonatal rats, subcutaneous injection, compared with MK 0677 and hexarelin)
Aib-D-Trp-D-Trpψ[CH2—NH—O]Gly-NH2 [IIa]	comparable to that of rat ghrelin and superior to that of MK 0677 and hexarelin	comparable to that of the natural ligand ghrelin and superior to the binding affinity of the synthetic GH secretagogues	remarkably potent	remarkably potent	exceeded the amount released when the standard GH secretagogues MK 0677 and hexarelin were administered
Aib-D-Trp-D-Trpψ[CH═N˜O]Gly-NH2 [Ia]	comparable to that of rat ghrelin and superior to that of MK 0677 and hexarelin	comparable to that of the natural ligand ghrelin and superior to the binding affinity of the synthetic GH secretagogues	remarkably potent	remarkably potent	–

From patent US7034050B2, “Pseudopeptides growth hormone secretagogues” (priority 2004, dated 2006)
